Test results taken from ChEMBL document CHEMBL1150841, “Mirabilin G: a new alkaloid from a southern Australian marine sponge, Clathria species” (J Nat Prod, 2001).
Active and inactive are the calls of the source.

Columns and labels:
Type in all cases: functional, organism-based
[1] = system: Serratia marcescens; assay: Antimicrobial activity against Serratia marcescens
[2] = system: Saccharomyces cerevisiae; assay: Antimicrobial activity against Saccharomyces cerevisiae
[3] = system: Escherichia coli; assay: Antimicrobial activity against Escherichia coli

Measured: inhibition

CCCC/C=C/C1=C2NC(=N)N[C@H]3CC[C@@H](C[C@@H]1C)[C@@H]23
active: all assays above
